The text below walks through data of ChEMBL document CHEMBL5108019, “Discovery of a novel Pleuromutilin derivative as anti-IPF lead compound via high-throughput assay” (Eur J Med Chem, 2022).

The structures appear in SMILES notation.

Transforming growth factor beta-1 proprotein/Mothers against decapentaplegic homolog 3 (Mus musculus), sequence (P04202 279-390 limits assumed): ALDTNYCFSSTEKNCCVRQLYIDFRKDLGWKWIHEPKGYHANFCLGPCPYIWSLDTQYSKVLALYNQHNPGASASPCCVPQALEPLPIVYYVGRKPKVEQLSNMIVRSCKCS
Transforming growth factor beta-1 proprotein/Mothers against decapentaplegic homolog 3 (Mus musculus), sequence (Q8BUN5 2-425 partner limits assumed): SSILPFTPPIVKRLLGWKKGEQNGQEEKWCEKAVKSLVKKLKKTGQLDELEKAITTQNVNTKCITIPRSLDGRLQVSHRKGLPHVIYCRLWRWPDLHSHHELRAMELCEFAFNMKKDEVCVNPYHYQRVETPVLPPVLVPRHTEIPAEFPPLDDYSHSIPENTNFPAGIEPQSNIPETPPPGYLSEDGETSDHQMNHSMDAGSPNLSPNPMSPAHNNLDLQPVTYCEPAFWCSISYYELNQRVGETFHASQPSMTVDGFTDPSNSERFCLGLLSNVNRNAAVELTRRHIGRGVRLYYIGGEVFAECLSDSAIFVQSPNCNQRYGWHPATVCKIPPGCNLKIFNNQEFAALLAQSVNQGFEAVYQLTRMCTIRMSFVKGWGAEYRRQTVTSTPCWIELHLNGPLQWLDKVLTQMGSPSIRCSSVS

This assay has as its target Transforming growth factor beta-1 proprotein/Mothers against decapentaplegic homolog 3 (Mus musculus) (UniProt P04202+Q8BUN5). Kind of assay: Inhibition of TGF-beta1/Smad3 signalling in TGF-beta1 treated mouse NIH3T3 cells transfected with (CAGA)12-Lux reporter gene assessed as suppressive ratio at 10 uM incubated for 18 hrs by luciferase based analysis relative to control. On the set-up: scale not given: the % may be the effect or the level left. Type of assay: cell-based.
In the case of `C=C[C@]1(C)C[C@@H](O)[C@]2(C)[C@H](C)CC[C@]3(C/C(=C\c4ccc(OC)cc4)C(=O)[C@H]32)[C@@H](C)[C@@H]1O`, the Activity turned out to be 21%. In the case of `NC(=O)c1ccc(-c2nc(-c3ccccn3)c(-c3ccc4c(c3)OCO4)[nH]2)cc1` it was 98.9%; in that of `C=C[C@]1(C)C[C@@H](O)[C@]2(C)[C@H](C)CC[C@]3(C/C(=C\C4CCCCC4)C(=O)[C@H]32)[C@@H](C)[C@@H]1O`, 32.4%; in that of `C=C[C@]1(C)C[C@@H](O)[C@]2(C)[C@H](C)CC[C@]3(C/C(=C\c4ccc5ccccc5c4)C(=O)[C@H]32)[C@@H](C)[C@@H]1O`, 26.5%. Take `C=C[C@]1(C)C[C@@H](O)[C@]2(C)[C@H](C)CC[C@]3(C/C(=C\c4ccc(C(=O)N5CCCCC5)cc4)C(=O)[C@H]32)[C@@H](C)[C@@H]1O`: the Activity was -16.7%. The result for `C=C[C@]1(C)C[C@@H](O)[C@]2(C)[C@H](C)CC[C@]3(C/C(=C\c4ccc(C(=O)Nc5ccccc5)cc4)C(=O)[C@H]32)[C@@H](C)[C@@H]1O` reads -27.7%; that for `C=C[C@]1(C)C[C@@H](O)[C@]2(C)[C@H](C)CC[C@]3(C/C(=C\c4ccc(C(F)(F)F)cc4)C(=O)[C@H]32)[C@@H](C)[C@@H]1O`, 35.5%; that for `C=C[C@]1(C)C[C@@H](O)[C@]2(C)[C@H](C)CC[C@]3(C/C(=C\CCC)C(=O)[C@H]32)[C@@H](C)[C@@H]1O`, 0.45%.

Regarding `C=C[C@]1(C)C[C@@H](O)[C@]2(C)[C@H](C)CC[C@]3(C/C(=C\c4cccc(C)c4)C(=O)[C@H]32)[C@@H](C)[C@@H]1O`, the Activity is 0.99%.

With `C=C[C@]1(C)C[C@@H](O)[C@]2(C)[C@H](C)CC[C@]3(C/C(=C\C4CC4)C(=O)[C@H]32)[C@@H](C)[C@@H]1O`, the Activity was -10.8%.

On to `C=C[C@]1(C)C[C@@H](O)[C@]2(C)[C@H](C)CC[C@]3(C/C(=C\c4cccc(C(=O)N5CCN(C)CC5)c4)C(=O)[C@H]32)[C@@H](C)[C@@H]1O`, for which the Activity amounted to 7.27%.

Consider `C=C[C@]1(C)C[C@@H](O)[C@]2(C)[C@H](C)CC[C@]3(C/C(=C\c4cccc(C(=O)O)c4)C(=O)[C@H]32)[C@@H](C)[C@@H]1O`, for which the Activity is -0.41%.

`C=C[C@]1(C)C[C@@H](O)[C@]2(C)[C@H](C)CC[C@]3(C/C(=C\CC(C)(C)C)C(=O)[C@H]32)[C@@H](C)[C@@H]1O`: the Activity was 18.5%. The result for `C=C[C@]1(C)C[C@@H](O)[C@]2(C)[C@H](C)CC[C@]3(C/C(=C\c4ccccc4)C(=O)[C@H]32)[C@@H](C)[C@@H]1O` reads 15.2%.

For the molecule `C=C[C@]1(C)C[C@@H](O)[C@]2(C)[C@H](C)CC[C@]3(C/C(=C\c4ccc(F)cc4)C(=O)[C@H]32)[C@@H](C)[C@@H]1O`, the Activity was 35.3%. In the case of `C=C[C@]1(C)C[C@@H](O)[C@]2(C)[C@H](C)CC[C@]3(C/C(=C\c4c(C)cc(C)cc4C)C(=O)[C@H]32)[C@@H](C)[C@@H]1O` it was 42.5%; in that of `C=C[C@]1(C)C[C@@H](O)[C@]2(C)[C@H](C)CC[C@]3(C/C(=C\c4ccccc4N4CCOCC4)C(=O)[C@H]32)[C@@H](C)[C@@H]1O`, 20.6%. In the case of `C=C[C@]1(C)C[C@@H](O)[C@]2(C)[C@H](C)CC[C@]3(C/C(=C\c4ccc(SC)cc4)C(=O)[C@H]32)[C@@H](C)[C@@H]1O` it was 46%; in that of `C=C[C@]1(C)C[C@@H](O)[C@]2(C)[C@H](C)CC[C@]3(C/C(=C\c4ccco4)C(=O)[C@H]32)[C@@H](C)[C@@H]1O`, 31%; in that of `C=C[C@]1(C)C[C@@H](O)[C@]2(C)[C@H](C)CC[C@]3(C/C(=C\C=C\c4ccccc4)C(=O)[C@H]32)[C@@H](C)[C@@H]1O`, 34%. For the molecule `C=C[C@]1(C)C[C@@H](O)[C@]2(C)[C@H](C)CC[C@]3(C/C(=C\c4ccc(C(=O)N(C)C)cc4)C(=O)[C@H]32)[C@@H](C)[C@@H]1O`, the Activity was -20.3%.

Take `C=C[C@]1(C)C[C@@H](O)[C@]2(C)[C@H](C)CC[C@]3(C/C(=C\c4ccc(Cl)cc4)C(=O)[C@H]32)[C@@H](C)[C@@H]1O`: the Activity is 48.9%.
